Assays:
20S proteasome = test system: T1, 20S proteasome; assay: Proteasome Activity Assay with fluorogenic AMC substrates, without REGγ; format: biochemical, human; conditions: 20S proteasome not in the presence of REGγ, even at high doses
T1 construct: purified 20S proteasome from human erythrocytes; purchased Biotechne E-360-050; host or cells: human erythrocytes
Description: Proteasome Activity Assay - The activity of the 20S and 20S-REGγ proteasomes was followed by fluorescence using the Bz-VGR-AMC (#BML-BW9375-0005, Enzo Life Sciences) substrate at 50µM for tryspin-like activity, the Suc-LLVY-AMC (#BML-P802-0005, Enzo Life Sciences) substrate at 100µM for the chemotrypsin-like activity and the Z-LLE-AMC (#BML-ZW9345-0005, Enzo Life Sciences) substrate at 100µM for the caspase-like activity. Substrates were incubated with 0,5nM of human 20S ((#E-360-050, Biotechne) and 12,5nM of human REGγ or 2nM of human REGαβ with or without compounds at different concentrations. Purified human REGγ and REGGαβ were generously provided by Julien Marcoux and Marie-Pierre Bousquet-Dubouch. Human REGγ and REGαβ were purified according to Le Feuvre et al., 2009 from plasmids kindly provided by Olivier Coux. The activity assay was performed in 96 well plates in a final volume of 80µL. Plates were read every minute for 90 minutes with a FLUOstar plate reader (BMG Labtech). To detect fluorescence, the excitation wavelength was set to 355nm and emission wavelength at 460nm. […]

OT-1 CD8+ T cells = assay: Co-culture of OT-1 cells with treated MCA205-Glob-SL8-intron cells, T cell activation by flow cytometry; format: cell-based, mouse
Description: MCA205-Glob-SL8-intron were plated at 1×10^5 cells in 12-well plates and incubated overnight. The next day, cells were treated with different concentrations of drugs for 24 hours. After treatment, cells were harvested with trypsin, washed twice with OT-1 Media (RPMI-1640, 10% FBS, 2mM L-glutamine, 50µM of 2-mercaptoéthanol, 100 IU/mL of Penicillin G, […]), and each condition was counted with a KOVA slide and Trypan-blue. For each tested condition 2×10^5 of treatedcells were plated in a 96-wells plate. The same day, lymph nodes from an OT1 mouse (C57B1/6J TCR-transgenic CD8^+ T cells specific for Kb -OVA257-264, obtained from Charles River #642OT1) were harvested. Lymph nodes were dissociated and filtered through a 40 µm filter and red blood cells were lysed with ACK buffer. 8×10^5 OT-1 cells were added to the MCA205-Glob-SL8-intron cells (E:T ratio of 4:1) and the plate was incubated overnight at 37°C. The next day, translocation to the golgi was blocked with brefeldin A (#420601, Biolegend) for 3h before cells were stained with Zombie Aqua (#423102, Biolegend) and antibodies described in Table 2, to measure T cell activation. Samples were acquired on a Cytek Aurora (Cytek Biosciences) spectral flow cytometer and data was analysed with FlowJo (V10) software (TreeStar, Inc.). Table 2: Panel of antibodies for the study of OT-1 CD8+ T-cells activation by MCA205-Glob-SL8-intron.
In their experiments, OT-1 cells were co-incubated with MCA205 cells expressing the globin-SL8-intron construct. To assess the production of antigenic peptide substrates, they measured OT-1 cell proliferation using FACS analysis. They analyzed the expression levels of early activation markers, CD69 and CD25, which are critical for the proliferation of activated T cells. For that purpose, MCA205 cells with the globin-SL8-intron construct were exposed to varying concentrations of compound 58 for 24 hours, followed by co-incubation with OT-1 cells.
Furthermore, inventors sought to characterize the activated OT-1 cell subset induced by this treatment. To do so, they examined the expression of CD44 and CD62L (L-selectin) markers, which delineate two major subsets of OT-1 CD8+ T cells following co-culture with MCA cells treated with compound 58: effector/memory (CD44^high/CD62L^low) and central memory (CD44^high/CD62L^high) CD8+ T cell subsets.
Inventors then evaluated the effector function of OT-1 cells post-co-culture with MCA cells treated with compound 58 by examining the expression of perforin.

[1] = MCA cells treated 24 hours, then co-culture with OT-1 cells

inhibitory effect on the three activities (trypsin-like, caspase-like, chymotrypsin-like) (20S proteasome): did not exhibit any inhibitory effect
SMILES: Cc1ccc(N=Nc2ccc(C)cc2NC(=O)Nc2ccccc2F)cc1 [compound 58]
frequency of CD69+ CD25+ OT-1 T cells (OT-1 CD8+ T cells; MCA205 cells treated 24 hours, then co-incubation with OT-1 cells, compared to untreated cells): increased frequency
frequency of CD44^high/CD62L^low effector/memory cells (OT-1 CD8+ T cells; [1]): dose-dependent increase
frequency of central memory CD44^high/CD62L^high cells (OT-1 CD8+ T cells; [1]): remained unchanged
perforin expression of OT-1 cells (OT-1 CD8+ T cells; [1]): increased perforin expression

From patent publication EP4537820A1, “COMPOUND AND COMBINATIONS COMPRISING SAID COMPOUND TO IMPROVE IMMUNE RESPONSE” (Institut Gustave-Roussy, priority 2023, dated 2025)
